Assay results: patent US9796704B2, “Substituted quinazolines as receptor-type kinase inhibitors” (Symphony Evolution, Inc., priority 2002, dated 2017)

Experiments:
EphA2 = EphA2 (Homo sapiens (Human), UniProt P29317); test: EphA2 kinase inhibition, luciferase-coupled chemiluminescent assay (LCCA); conditions: read-out: EphA2 IC50
Experimental: (§1) Kinase activity and compound inhibition are investigated using one or more of the three assay formats described below. The ATP concentrations are selected near its Michaelis-Menten constant (KM) for each individual kinase. Dose-response experiments are performed at ten different inhibitor concentrations in a 384-well plate format. […] Typically H is close to unity.
(§2) In the LCCA assays, kinase activity is measured by the ATP consumption that is accurately measured by luciferase-coupled chemiluminescence. Greiner 384-well white clear bottom medium binding plates are used for LCCA. Briefly the kinase reaction is initiated by mixing compounds, ATP and kinases in a 20 μL volume. At the end of the kinase reaction, a 20 μL luciferase-luciferin mix is added and the chemiluminescent signal is read on a Wallac Victor^2 reader.

EGFR = EGFR (Homo sapiens (Human), UniProt P00533); test: EGFR kinase inhibition, luciferase-coupled chemiluminescent assay (LCCA); conditions: read-out: EGFR IC50
Experimental: as §1, §2

EphB4 = EphB4 (Homo sapiens (Human), UniProt P54760); test: EphB4 kinase inhibition, 33P phosphoryl transfer assay (radiometric); format: biochemical
Experimental: Phosphorylated substrate products are quantified by scintillation spectrometry.
Kinase activity and compound inhibition are investigated using one or more of the three assay formats described below. The ATP concentrations are selected near its Michaelis-Menten constant (KM) for each individual kinase. Dose-response experiments are performed at ten different inhibitor concentrations in a 384-well plate format. […] These parameters are obtained by nonlinear regression algorithm built into ActivityBase software (available from ID Business Solutions Ltd., of Guildford, Surrey, UK). ^33P Phosphoryl Transfer Assay (Radiometric)
Greiner 384-well white clear bottom high binding plates (available from Greiner Bio-One, Inc., of Longwood, Fla.) are coated with 2 μg/well of protein or peptide substrate in a 50 μL volume overnight at ambient temperature. […] The coating solution is aspirated and the plates are washed once with 50 μL of assay buffer and padded dry. Subsequently compounds and enzymes are mixed with γ ^33P-ATP (3.3 μCi/nmol) in a total volume of 20 uL in suitable assay buffers (see Table 2). For example the final EphB4 reaction solution contains 20 mM TrisHCl, pH 7.5, 10 mM MgCl2, 0.01% Triton X-100, 0.1 mM NaVO3, 5 nM EphB4 enzyme and 5 μM ATP. […] The plates are subsequently washed 6-12 times with PBST or TBS buffer.

Sequence of EphA2 (P29317 598-890): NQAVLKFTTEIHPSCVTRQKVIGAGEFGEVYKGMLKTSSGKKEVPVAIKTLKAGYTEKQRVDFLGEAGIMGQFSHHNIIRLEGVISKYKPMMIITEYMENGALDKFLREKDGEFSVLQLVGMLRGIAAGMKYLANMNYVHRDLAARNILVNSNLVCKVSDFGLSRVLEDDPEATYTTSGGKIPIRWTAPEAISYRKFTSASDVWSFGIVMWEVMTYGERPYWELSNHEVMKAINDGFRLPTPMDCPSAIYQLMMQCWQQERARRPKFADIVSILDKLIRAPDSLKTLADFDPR
Sequence of EphB4 (P54760 605-890): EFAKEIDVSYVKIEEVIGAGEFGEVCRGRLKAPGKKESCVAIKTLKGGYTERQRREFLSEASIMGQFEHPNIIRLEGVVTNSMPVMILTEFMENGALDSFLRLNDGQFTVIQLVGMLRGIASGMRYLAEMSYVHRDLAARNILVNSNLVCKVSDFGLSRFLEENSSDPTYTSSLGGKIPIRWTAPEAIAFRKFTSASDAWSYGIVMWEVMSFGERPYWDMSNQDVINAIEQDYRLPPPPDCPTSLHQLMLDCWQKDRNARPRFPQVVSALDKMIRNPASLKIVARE
Sequence of EGFR (P00533 672-1210): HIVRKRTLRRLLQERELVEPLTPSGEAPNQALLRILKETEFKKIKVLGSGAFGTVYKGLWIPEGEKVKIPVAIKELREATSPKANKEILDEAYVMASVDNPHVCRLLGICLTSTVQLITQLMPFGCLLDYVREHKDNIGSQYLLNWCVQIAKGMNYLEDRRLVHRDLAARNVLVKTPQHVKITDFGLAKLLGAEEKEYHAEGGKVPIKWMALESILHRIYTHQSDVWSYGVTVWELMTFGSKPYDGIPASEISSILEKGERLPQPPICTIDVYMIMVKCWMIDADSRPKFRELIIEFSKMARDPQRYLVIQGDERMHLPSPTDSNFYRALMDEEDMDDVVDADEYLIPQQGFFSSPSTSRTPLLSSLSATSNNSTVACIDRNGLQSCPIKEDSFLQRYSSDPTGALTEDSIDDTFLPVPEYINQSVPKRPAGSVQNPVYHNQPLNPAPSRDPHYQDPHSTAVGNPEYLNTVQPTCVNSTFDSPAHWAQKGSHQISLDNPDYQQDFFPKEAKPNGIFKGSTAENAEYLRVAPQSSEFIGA

Row | IC50 (EphA2) [nM] | IC50 (EGFR) [nM] | IC50 (EphB4) [nM] | Structure (SMILES)
1 | 50 to 1000 | < 50 | < 50 | COc1cc2c(Nc3ccc(Cl)c(Cl)c3)ncnc2cc1OC[C@H]1O[C@H](OC)[C@H](O)[C@@H](O)[C@@H]1O (stereo in doubt) [Example 194, methyl 6-O-[4-[(3,4-dichlorophenyl)amino]-6-(methyloxy)quinazolin-7-yl]-alpha-D-glucopyranoside]
2 | 1000 to 20000 | < 50 | 1000 to 20000 | COc1cc2c(Nc3cc(Cl)c(Cl)cc3F)ncnc2cc1OC[C@@H]1CO[C@H]2[C@@H]1OC[C@@H]2OC [Example 48, 1,4:3,6-dianhydro-5-deoxy-5-({[4-[(4,5-dichloro-2-fluorophenyl)amino]-6-(methyloxy)quinazolin-7-yl]oxy}methyl)-2-O-methyl-D-glucitol]
3 | 50 to 1000 | < 50 | 50 to 1000 | COc1cc2c(Nc3cccc(Cl)c3F)ncnc2cc1O[C@H]1CO[C@H]2[C@@H]1OC[C@@H]2OC [Example 71, 1,4:3,6-dianhydro-2-O-[4-[(3-chloro-2-fluorophenyl)amino]-6-(methyloxy)quinazolin-7-yl]-5-O-methyl-L-iditol]
4 | 50 to 1000 | < 50 | 50 to 1000 | COc1cc2c(Nc3ccc(Cl)c(Cl)c3)ncnc2cc1O[C@H]1CO[C@H]2[C@@H]1OC[C@@H]2OC [Example 72, 1,4:3,6-dianhydro-2-O-[4-[(3,4-dichlorophenyl)amino]-6-(methyloxy)quinazolin-7-yl]-5-O-methyl-L-iditol]
5 | 1000 to 20000 | < 50 | 50 to 1000 | CCO[C@H]1CO[C@H]2[C@@H]1OC[C@@H]2Oc1cc2ncnc(Nc3ccc(Br)c(Cl)c3)c2cc1OC [Example 74, 1,4:3,6-dianhydro-2-O-[4-[(4-bromo-3-chlorophenyl)amino]-6-(methyloxy)quinazolin-7-yl]-5-O-ethyl-L-iditol]
6 | 50 to 1000 | < 50 | < 50 | COc1cc2c(Nc3cccc(Br)c3C)ncnc2cc1O[C@H]1CO[C@H]2[C@@H]1OC[C@@H]2OC [Example 75, 1,4:3,6-dianhydro-2-O-[4-[(3-bromo-2-methylphenyl)amino]-6-(methyloxy)quinazolin-7-yl]-5-O-methyl-L-iditol]
7 | 50 to 1000 | < 50 | 50 to 1000 | COc1cc2c(Nc3cccc(Cl)c3C)ncnc2cc1O[C@H]1CO[C@H]2[C@@H]1OC[C@@H]2OC [Example 76, 1,4:3,6-dianhydro-2-O-[4-[(3-chloro-2-methylphenyl)amino]-6-(methyloxy)quinazolin-7-yl]-5-O-methyl-L-iditol]
8 | < 50 | < 50 | < 50 | COc1cc2c(Nc3cc(Cl)ccc3Cl)ncnc2cc1O[C@@H]1CO[C@@H]2[C@H]1OC[C@H]2F [Example 118, 1,4:3,6-dianhydro-2-deoxy-5-O-[4-[(2,5-dichlorophenyl)amino]-6-(methyloxy)quinazolin-7-yl]-2-fluoro-D-iditol]
9 |  | < 50 | 50 to 1000 | COc1cc2c(Nc3ccc(Cl)c(Cl)c3)ncnc2cc1OCc1noc(C2CCCCN2)n1 (centres unmarked) [Example 145, N-(3,4-dichlorophenyl)-6-(methyloxy)-7-{[(5-piperidin-2-yl-1,2,4-oxadiazol-3-yl)methyl]oxy}quinazolin-4-amine]
10 |  | < 50 | 50 to 1000 | COc1cc2c(Nc3ccc(Cl)c(Cl)c3)ncnc2cc1OCC1CN(Cc2ccccc2)CCO1 (centres unmarked) [Example 147, N-(3,4-dichlorophenyl)-6-(methyloxy)-7-({[4-(phenylmethyl)morpholin-2-yl]methyl}oxy)quinazolin-4-amine]
11 | 50 to 1000 | < 50 | 50 to 1000 | COc1cc2c(Nc3ccc(Cl)c(Cl)c3)ncnc2cc1OCC1CN(C)CCO1 (centres unmarked) [Example 151, N-(3,4-dichlorophenyl)-7-{[(4-methylmorpholin-2-yl)methyl]oxy}-6-(methyloxy)quinazolin-4-amine]
12 |  | < 50 | 50 to 1000 | COc1cc2c(Nc3ccc(Cl)c(Cl)c3)ncnc2cc1OCc1noc(C2CCCNC2)n1 (centres unmarked) [Example 153, N-(3,4-dichlorophenyl)-6-(methyloxy)-7-{[(5-piperidin-3-yl-1,2,4-oxadiazol-3-yl)methyl]oxy}quinazolin-4-amine]
13 |  | < 50 | 50 to 1000 | COc1cc2c(Nc3ccc(Cl)c(Cl)c3)ncnc2cc1OCc1noc(C2CCCN(C)C2)n1 (centres unmarked) [Example 156, N-(3,4-dichlorophenyl)-6-(methyloxy)-7-({[5-(1-methylpiperidin-3-yl)-1,2,4-oxadiazol-3-yl]methyl}oxy)quinazolin-4-amine]
14 |  | < 50 | < 50 | COc1cc2c(Nc3ccc(Cl)c(Cl)c3)ncnc2cc1OCc1ccncc1 [Example 172, N-(3,4-dichlorophenyl)-6-(methyloxy)-7-[(pyridin-4-ylmethyl)oxy]quinazolin-4-amine]
15 | 1000 to 20000 | < 50 |  | COc1cc2c(Nc3ccc(Cl)c(Cl)c3)ncnc2cc1OCc1cccnc1 [Example 179, N-(3,4-dichlorophenyl)-6-(methyloxy)-7-[(pyridin-3-ylmethyl)oxy]quinazolin-4-amine]
16 | 50 to 1000 | < 50 | 50 to 1000 | COc1cc2c(Nc3ccc(Cl)c(Cl)c3)ncnc2cc1OCC1CC1 [Example 182, 7-[(cyclopropylmethyl)oxy]-N-(3,4-dichlorophenyl)-6-(methyloxy)quinazolin-4-amine]
17 | < 50 |  |  | COc1cc2c(Nc3ccc(Cl)c(Cl)c3)ncnc2cc1OCc1nc(N2CCNCC2)no1 [Example 217, N-(3,4-dichlorophenyl)-6-(methyloxy)-7-{[(3-piperazin-1-yl-1,2,4-oxadiazol-5-yl)methyl]oxy}quinazolin-4-amine]
18 |  | < 50 | 50 to 1000 | COc1cc2c(Nc3ccc(Cl)c(Cl)c3)ncnc2cc1OCc1csc(-c2ccc(C(F)(F)F)cc2)n1 [Example 222, N-(3,4-dichlorophenyl)-6-(methyloxy)-7-[({2-[4-(trifluoromethyl)phenyl]-1,3-thiazol-4-yl}methyl)oxy]quinazolin-4-amine]
19 |  | < 50 | < 50 | COc1cc2c(Nc3ccc(Cl)c(Cl)c3)ncnc2cc1OCc1c(F)cccc1F [Example 233, N-(3,4-dichlorophenyl)-7-{[(2,6-difluorophenyl)methyl]oxy}-6-(methyloxy)quinazolin-4-amine]
20 |  | < 50 | 50 to 1000 | CCCN1CCCOC(COc2cc3ncnc(Nc4ccc(Cl)c(Cl)c4)c3cc2OC)C1 (centres unmarked) [Example 258, N-(3,4-dichlorophenyl)-6-(methyloxy)-7-{[(4-propyl-1,4-oxazepan-2-yl)methyl]oxy}quinazolin-4-amine]
21 |  | < 50 | 50 to 1000 | COc1cc2c(Nc3ccc(Cl)c(Cl)c3)ncnc2cc1OCC1CN(CC2CC2)CCCO1 (centres unmarked) [Example 259, 7-({[4-(cyclopropylmethyl)-1,4-oxazepan-2-yl]methyl}oxy)-N-(3,4-dichlorophenyl)-6-(methyloxy)quinazolin-4-amine]
22 |  | < 50 | 50 to 1000 | COc1cc2c(Nc3ccc(Cl)c(Cl)c3)ncnc2cc1OCC1CN(C2CCCC2)CCO1 (centres unmarked) [Example 269, 7-{[(4-cyclopentylmorpholin-2-yl)methyl]oxy}-N-(3,4-dichlorophenyl)-6-(methyloxy)quinazolin-4-amine]
